Results as given in patent publication US10363257B2 (ZENITH EPIGENETICS LTD., priority 2013, dated 2019).

Assays:
[1] = molecular target: T1, Brd4 bromodomain 1 (BRD4(1)) (Homo sapiens, UniProt O60885); experiment: Inhibition of tetra-acetylated histone H4 binding to Brd4 bromodomain 1 (TR-FRET); conditions: tetra-acetylated histone H4 peptide, first bromodomain of Brd4
T1 construct: made in house; host or cells: E. coli BL21(DE3)
Outline: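 His-tagged BRD4(1) from E. coli (200 nM) with biotinylated tetra-acetylated H4 peptide (25-50 nM), Eu-cryptate streptavidin and XL665 anti-His, in HEPES pH 7.4/phosphate/KF buffer, 0.2% DMSO. After 2 h at room temperature, TR-FRET 665/620 nm ratio read; IC50 from dose-response curves.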

[2] = system: c-myc; experiment: Inhibition of c-myc expression (mRNA, real-time PCR) in MV4-11 cells; format: cell-based; conditions: Human AML MV4-11 cells, 3 h, cMYC mRNA
Outline: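 MV4-11 cells treated 3 h at 37° C with increasing compound concentrations or 0.1% DMSO, in triplicate. cMYC mRNA quantified by one-step TaqMan real-time PCR, Ct normalized to internal control (Cyclophilin primers used), fold expression relative to control.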

[3] = system: human AML MV-4-11 cells; experiment: Inhibition of cell proliferation in MV4-11 cells (CellTiter Aqueous One); format: cell-based; conditions: MV4-11, 72 h
Outline: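 Exponentially growing MV-4-11 cells (5×10^4/well) were treated immediately with two-fold dilutions of compound from 30 μM to 0.2 μM, in triplicate, for 72 h at 37° C, 5% CO2. Viability was measured by MTS absorbance at 490 nm after 3–4 h. Proliferation relative to DMSO after blank correction gave IC50.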

[4] = system: hIL-6 mRNA; experiment: Inhibition of hIL-6 mRNA transcription in LPS-stimulated U937 cells; format: cell-based; conditions: Homo sapiens, U-937; PMA-differentiated U937 cells, 1 h pretreatment, 1 ug/mL LPS stimulation, 3 h; read-out: IL-6 activity (Inhibition of hIL-6 mRNA Transcription)
Outline: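 U937 cells differentiated 3 days with 60 ng/mL PMA, pretreated 1 h with compound (0.1% DMSO), then stimulated with 1 ug/mL E. coli LPS for 3 h at 37 °C. hIL-6 mRNA measured by one-step TaqMan RT-qPCR, normalized to cyclophilin. Fold expression relative to control; triplicate wells.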

Row | IC50 [1] [nM] | IC50 [2] [nM] | IC50 [3] [nM] | IC50 [4] [nM] | SMILES
1 | ≤ 300 | 300 to 3000 | 300 to 3000 | 300 to 3000 | COc1cc(-c2c(C)noc2C)cc2c1nc(C)n2Cc1ccccc1 [Example Compound 66, 4-(1-benzyl-4-methoxy-2-methyl-1H-benzo[d]imidazol-6-yl)-3,5-dimethylisoxazole]
2 | ≤ 300 | ≤ 300 | 300 to 3000 | ≤ 300 | Cc1noc(C)c1-c1cc(N)c2oc(=O)n(Cc3ccccc3)c2c1 [compound 67, 7-amino-3-benzyl-5-(3,5-dimethylisoxazol-4-yl)benzo[d]oxazol-2(3H)-one]
3 | ≤ 300 | 300 to 3000 | 3000 to 30000 | 300 to 3000 | Cc1noc(C)c1-c1cnc2nc(C)n(Cc3cccnc3)c2c1 [compound 68, 3,5-dimethyl-4-(2-methyl-1-(pyridin-3-ylmethyl)-1H-imidazo[4,5-b]pyridin-6-yl)isoxazole]
4 | ≤ 300 | 300 to 3000 | 300 to 3000 | 300 to 3000 | Cc1noc(C)c1-c1cnc2nc(C)n(Cc3cccs3)c2c1 [compound 69, 3,5-dimethyl-4-(2-methyl-1-(thiophen-2-ylmethyl)-1H-imidazo[4,5-b]pyridin-6-yl)isoxazole]
5 | ≤ 300 | 300 to 3000 | 300 to 3000 | 300 to 3000 | Cc1noc(C)c1-c1cnc2ccn(Cc3ccccc3)c2c1 [compound 71, 4-(1-benzyl-1H-pyrrolo[3,2-b]pyridin-6-yl)-3,5-dimethylisoxazole]
6 | 300 to 3000 | 3000 to 30000 | 3000 to 30000 | 3000 to 30000 | Cc1noc(C)c1-c1cnc2c(CN(C)C)cn(Cc3ccccc3)c2c1 [compound 72, 1-(1-benzyl-6-(3,5-dimethylisoxazol-4-yl)-1H-pyrrolo[3,2-b]pyridin-3-yl)-N,N-dimethylmethanamine]
7 | 300 to 3000 | 3000 to 30000 | 3000 to 30000 | 300 to 3000 | Cc1noc(C)c1-c1cc(N)c2ccn(Cc3ccccc3)c2n1 [compound 73, 1-benzyl-6-(3,5-dimethylisoxazol-4-yl)-1H-pyrrolo[2,3-b]pyridin-4-amine]
8 | 300 to 3000 | 3000 to 30000 | 3000 to 30000 | 300 to 3000 | Cc1noc(C)c1-c1cnc2nc(C)n(Cc3ccncc3)c2c1 [compound 74, 3,5-dimethyl-4-(2-methyl-1-(pyridin-4-ylmethyl)-1H-imidazo[4,5-b]pyridin-6-yl)isoxazole]
9 | ≤ 300 | 300 to 3000 | 300 to 3000 | 300 to 3000 | Cc1noc(C)c1-c1cc(N)c2nc(C)n(CC3CC3)c2c1 [compound 75, 1-(cyclopropylmethyl)-6-(3,5-dimethylisoxazol-4-yl)-2-methyl-1H-benzo[d]imidazol-4-amine]
10 | 300 to 3000 | 300 to 3000 | 3000 to 30000 | 300 to 3000 | Cc1ccc(Cn2c(C)nc3ncc(-c4c(C)noc4C)cc32)s1 [compound 76, 3,5-dimethyl-4-(2-methyl-1-((5-methylthiophen-2-yl)methyl)-1H-imidazo[4,5-b]pyridin-6-yl)isoxazole]
11 | ≤ 300 | 300 to 3000 | 300 to 3000 | 300 to 3000 | Cc1noc(C)c1-c1cnc2nc(C)n(Cc3ccc(Cl)s3)c2c1 [compound 77, 4-(1-((5-chlorothiophen-2-yl)methyl)-2-methyl-1H-imidazo[4,5-b]pyridin-6-yl)-3,5-dimethylisoxazole]
12 | ≤ 300 | 3000 to 30000 | 3000 to 30000 | 300 to 3000 | Cc1noc(C)c1-c1cnc2nc(C)n(Cc3ccc(C#N)s3)c2c1 [compound 78, 5-((6-(3,5-dimethylisoxazol-4-yl)-2-methyl-1H-imidazo[4,5-b]pyridin-1-yl)methyl)thiophene-2-carbonitrile]
13 | 300 to 3000 | 3000 to 30000 | 3000 to 30000 | 300 to 3000 | Cc1cnn(C)c1-c1cc([N+](=O)[O-])c2nc(C)n(Cc3ccccc3)c2c1 [compound 81, 1-benzyl-6-(1,4-dimethyl-1H-pyrazol-5-yl)-2-methyl-4-nitro-1H-benzo[d]imidazole]
14 | 300 to 3000 | 300 to 3000 | 3000 to 30000 | 300 to 3000 | Cc1cnn(C)c1-c1cc(N)c2nc(C)n(Cc3ccccc3)c2c1 [compound 82, 1-benzyl-6-(1,4-dimethyl-1H-pyrazol-5-yl)-2-methyl-1H-benzo[d]imidazol-4-amine]
15 | ≤ 300 | 300 to 3000 | 300 to 3000 | 300 to 3000 | Cc1noc(C)c1-c1cnc2nc(C)n(Cc3ccc(Cl)cc3)c2c1 [compound 83, 4-(1-(4-chlorobenzyl)-2-methyl-1H-imidazo[4,5-b]pyridin-6-yl)-3,5-dimethylisoxazole]
16 | ≤ 300 | 300 to 3000 | 300 to 3000 | 300 to 3000 | Cc1noc(C)c1-c1cnc2nc(C)n(Cc3ccc(O)cc3)c2c1 [compound 84, 4-((6-(3,5-dimethylisoxazol-4-yl)-2-methyl-1H-imidazo[4,5-b]pyridin-1-yl)methyl)phenol]
17 | ≤ 300 | 300 to 3000 | 3000 to 30000 | 300 to 3000 | Cc1noc(C)c1-c1cc(C#N)c2[nH]c(=O)n(Cc3ccccc3)c2c1 [compound 86, 1-benzyl-6-(3,5-dimethylisoxazol-4-yl)-2-oxo-2,3-dihydro-1H-benzo[d]imidazole-4-carbonitrile]
18 | ≤ 300 | ≤ 300 | ≤ 300 | ≤ 300 | Cc1noc(C)c1-c1cc(N)c2nc(N3CCOCC3)n(Cc3ccccc3)c2c1 [compound 87, 1-benzyl-6-(3,5-dimethylisoxazol-4-yl)-2-morpholino-1H-benzo[d]imidazol-4-amine]
19 | ≤ 300 | 300 to 3000 | 300 to 3000 | ≤ 300 | Cc1noc(C)c1-c1cnc2c(C#N)cn(Cc3ccccc3)c2c1 [compound 88, 1-benzyl-6-(3,5-dimethylisoxazol-4-yl)-1H-pyrrolo[3,2-b]pyridine-3-carbonitrile]
20 | ≤ 300 | 300 to 3000 | 300 to 3000 | 300 to 3000 | Cc1noc(C)c1-c1cnc2c(Cl)cn(Cc3ccccc3)c2c1 [compound 89, 4-(1-benzyl-3-chloro-1H-pyrrolo[3,2-b]pyridin-6-yl)-3,5-dimethylisoxazole]
21 | ≤ 300 | 300 to 3000 | 3000 to 30000 | 300 to 3000 | Cc1noc(C)c1-c1cc([N+](=O)[O-])c2[nH]c(=O)n(Cc3ccc(Cl)cc3)c2c1 [compound 91, 1-(4-chlorobenzyl)-6-(3,5-dimethylisoxazol-4-yl)-4-nitro-1H-benzo[d]imidazol-2(3H)-one]
22 | ≤ 300 | 300 to 3000 | 300 to 3000 | 300 to 3000 | Cc1noc(C)c1-c1cnc2cnn(Cc3ccccc3)c2c1 [compound 92, 4-(1-benzyl-1H-pyrazolo[4,3-b]pyridin-6-yl)-3,5-dimethylisoxazole]
23 | ≤ 300 | 3000 to 30000 | 3000 to 30000 | 300 to 3000 | Cc1noc(C)c1-c1cnc2cnn(Cc3ccc(Cl)cc3)c2c1 [compound 93, 4-(1-(4-chlorobenzyl)-1H-pyrazolo[4,3-b]pyridin-6-yl)-3,5-dimethylisoxazole]
24 | ≤ 300 | 300 to 3000 | 300 to 3000 | 300 to 3000 | Cc1nc2c(N)cc(-c3ccnn3C)cc2n1Cc1ccccc1 [compound 94, 1-benzyl-2-methyl-6-(1-methyl-1H-pyrazol-5-yl)-1H-benzo[d]imidazol-4-amine]
25 | ≤ 300 | 300 to 3000 | 300 to 3000 | 300 to 3000 | Cc1noc(C)c1-c1cnc2nc(C)n(Cc3ccc(Cl)c(Cl)c3)c2c1 [compound 95, 4-(1-(3,4-dichlorobenzyl)-2-methyl-1H-imidazo[4,5-b]pyridin-6-yl)-3,5-dimethylisoxazole]
26 | ≤ 300 | ≤ 300 | ≤ 300 | ≤ 300 | Cc1noc(C)c1-c1cc(N)c2nc(C)n(C(C)c3ccccc3)c2c1 (stereo not shown) [compound 96, 6-(3,5-dimethylisoxazol-4-yl)-2-methyl-1-(1-phenylethyl)-1H-benzo[d]imidazol-4-amine]
27 | ≤ 300 | ≤ 300 | ≤ 300 | ≤ 300 | Cc1noc(C)c1-c1cc(N)c2nc(N3CCC3)n(Cc3ccccc3)c2c1 [compound 97, 2-(azetidin-1-yl)-1-benzyl-6-(3,5-dimethylisoxazol-4-yl)-1H-benzo[d]imidazol-4-amine]
28 | 300 to 3000 | 300 to 3000 | 300 to 3000 | 300 to 3000 | Cc1noc(C)c1-c1cnc2cnn(Cc3ccsc3)c2c1 [compound 98, 3,5-dimethyl-4-(1-(thiophen-3-ylmethyl)-1H-pyrazolo[4,3-b]pyridin-6-yl)isoxazole]
